For one data set, the system named is Escherichia coli. In words: Antimicrobial activity against Escherichia coli K12 upto 256 microg/ml incubated for 20 hrs by resazurin staining based microtiter plate reader analysis. Format: functional, organism-based. Particulars: dose <= 256.0 µg/ml.
A short description of data set [1]: Cytotoxicity against HDFa cells assessed as reduction in cell viability at 16 ug/mL measured after 20 hrs by XTT assay. Format: toxicity, cell-based. Particulars: human, dose 16 µg/ml.
Data set [2] addresses Ubiquitin carboxyl-terminal hydrolase 7 (Homo sapiens) (UniProt Q93009). In words: Inhibition of human USP7 at 35 uM relative to control.
Another data set deals with HEp-2. In words: Cytotoxicity against human HEp-2 cells assessed as reduction in cell viability at 4 to 256 ug/mL measured after 20 hrs by XTT assay. As to conditions: hep-2, 20 h, dose 4-256 µg/ml. The class given is toxicity, cell-based.
For data set [3], the target named is T1, Deubiquitinase and deneddylase Dub1 (Chlamydia trachomatis serovar L2 (strain ATCC VR-902B / DSM 19102 /434/Bu)) (UniProt B0B9A0).
T1 sequence (whole entry): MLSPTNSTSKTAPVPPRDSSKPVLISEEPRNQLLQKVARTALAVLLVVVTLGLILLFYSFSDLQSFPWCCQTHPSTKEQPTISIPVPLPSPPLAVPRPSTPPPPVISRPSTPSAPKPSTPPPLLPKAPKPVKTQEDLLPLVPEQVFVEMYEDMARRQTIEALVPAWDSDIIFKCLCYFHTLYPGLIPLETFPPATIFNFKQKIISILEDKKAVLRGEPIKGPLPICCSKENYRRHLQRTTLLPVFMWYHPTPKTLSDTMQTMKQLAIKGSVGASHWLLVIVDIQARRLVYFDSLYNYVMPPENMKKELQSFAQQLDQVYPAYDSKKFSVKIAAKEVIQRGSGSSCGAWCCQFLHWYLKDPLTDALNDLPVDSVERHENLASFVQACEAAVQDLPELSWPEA
In words: Non-covalent inhibition of recombinant Chlamydia trachomatis DUB1 (130 to 401 residues) using Ub-Rh110Gly as fluorogenic substrate incubated for 10 to 360 mins by enzymatic analysis. Particulars: time 10-360 min.

Data set [4] addresses T2, Deubiquitinase and deneddylase Dub2 (Chlamydia trachomatis, UniProt O84875).
T2 sequence (O84875 whole entry): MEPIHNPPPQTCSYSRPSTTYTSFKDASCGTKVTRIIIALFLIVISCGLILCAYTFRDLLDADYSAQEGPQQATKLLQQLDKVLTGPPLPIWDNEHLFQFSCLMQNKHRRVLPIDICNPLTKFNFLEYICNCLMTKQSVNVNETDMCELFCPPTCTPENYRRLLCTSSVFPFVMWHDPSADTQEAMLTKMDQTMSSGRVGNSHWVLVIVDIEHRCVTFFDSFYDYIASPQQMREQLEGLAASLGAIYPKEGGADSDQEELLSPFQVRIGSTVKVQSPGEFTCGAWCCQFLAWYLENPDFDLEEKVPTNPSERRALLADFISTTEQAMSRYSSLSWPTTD
In words: Inhibition of Chlamydia trachomatis DUB2 incubated for 60 mins.

Data set [5] can be described thus: Cytotoxicity against HDFa cells assessed as cell viability at 128 ug/mL measured after 20 hrs by XTT assay relative to control. Format: toxicity, cell-based. As to conditions: human, at 128 µg/mL, read-out: Activity.
Data set [6] deals with T3, OTU domain-containing protein 3 (Homo sapiens) (UniProt Q5T2D3).
T3 sequence (whole entry): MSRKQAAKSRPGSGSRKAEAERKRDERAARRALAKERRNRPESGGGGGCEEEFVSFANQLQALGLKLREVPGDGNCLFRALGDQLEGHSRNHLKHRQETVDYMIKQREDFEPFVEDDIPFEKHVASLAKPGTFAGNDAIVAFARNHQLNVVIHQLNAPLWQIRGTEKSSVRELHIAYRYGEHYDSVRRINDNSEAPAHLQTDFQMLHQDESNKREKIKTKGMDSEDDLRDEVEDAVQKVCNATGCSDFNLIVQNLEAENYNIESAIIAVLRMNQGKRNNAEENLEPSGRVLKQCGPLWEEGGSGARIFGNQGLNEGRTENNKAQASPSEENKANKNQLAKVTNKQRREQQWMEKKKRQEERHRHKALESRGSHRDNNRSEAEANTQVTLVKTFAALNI
In words: Inhibition of human OTUD3 at 35 uM relative to control.

In data set [7] the target is T4, Deubiquitinase and deneddylase Dub2 (Chlamydia trachomatis) (UniProt O84875).
T4 sequence (whole entry): T2 sequence (O84875 whole entry)
In words: Inhibition of Chlamydia trachomatis DUB2 incubated for 60 mins relative to control.

The target of data set [8] is T5, Ubiquitin carboxyl-terminal hydrolase isozyme L3 (Homo sapiens) (UniProt P15374).
T5 sequence (whole entry): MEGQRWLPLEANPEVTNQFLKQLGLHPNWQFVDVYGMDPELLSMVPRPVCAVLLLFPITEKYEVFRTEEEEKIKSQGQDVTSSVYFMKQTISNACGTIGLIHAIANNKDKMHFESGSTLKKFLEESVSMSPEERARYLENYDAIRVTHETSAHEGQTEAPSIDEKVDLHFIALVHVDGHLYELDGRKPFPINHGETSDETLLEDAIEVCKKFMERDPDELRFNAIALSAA
In words: Inhibition of human UCHL3 at 35 uM relative to control.

In data set [9] the target is T4, Deubiquitinase and deneddylase Dub2 (Chlamydia trachomatis). In words: Mixed type inhibition of Chlamydia trachomatis DUB2 incubated for 60 mins.
In data set [10] the target is T1, Deubiquitinase and deneddylase Dub1 (Chlamydia trachomatis serovar L2 (strain ATCC VR-902B / DSM 19102 /434/Bu)). In words: Inhibition of recombinant Chlamydia trachomatis DUB1 (130 to 401 residues) using Ub-Rh110Gly as fluorogenic substrate at 100 to 500 uM incubated for 20 to 240 mins by enzymatic analysis relative to control. As to conditions: dose 100-500 µM, time 20-240 min.

The target is the same in data set [11]. In words: Inhibition of recombinant Chlamydia trachomatis DUB1 (130 to 401 residues) using Ub-Rh110Gly as fluorogenic substrate at highest concentration incubated for 60 to 360 mins by enzymatic analysis. As to conditions: time 60-360 min.
Data set [12] concerns the target T6, Deubiquitinase and deneddylase Dub1 (Chlamydia trachomatis serovar L2 (strain ATCC VR-902B / DSM 19102 /434/Bu), UniProt B0B9A0).
T6 sequence (B0B9A0 whole entry): T1 sequence (whole entry)
In words: Inhibition of recombinant Chlamydia trachomatis DUB1 (130 to 401 residues) using Ub-Rh110Gly as fluorogenic substrate incubated for 60 mins by enzymatic analysis. Particulars: read-out: IC50.

Molecules are shown by their SMILES. pIC50: −log10 of the molar value. The source made the active and inactive calls. The calls are words filed in the database; no cut-off is given here.

Chain of Ubiquitin carboxyl-terminal hydrolase 7 (Homo sapiens) (Q93009 whole entry, looked up): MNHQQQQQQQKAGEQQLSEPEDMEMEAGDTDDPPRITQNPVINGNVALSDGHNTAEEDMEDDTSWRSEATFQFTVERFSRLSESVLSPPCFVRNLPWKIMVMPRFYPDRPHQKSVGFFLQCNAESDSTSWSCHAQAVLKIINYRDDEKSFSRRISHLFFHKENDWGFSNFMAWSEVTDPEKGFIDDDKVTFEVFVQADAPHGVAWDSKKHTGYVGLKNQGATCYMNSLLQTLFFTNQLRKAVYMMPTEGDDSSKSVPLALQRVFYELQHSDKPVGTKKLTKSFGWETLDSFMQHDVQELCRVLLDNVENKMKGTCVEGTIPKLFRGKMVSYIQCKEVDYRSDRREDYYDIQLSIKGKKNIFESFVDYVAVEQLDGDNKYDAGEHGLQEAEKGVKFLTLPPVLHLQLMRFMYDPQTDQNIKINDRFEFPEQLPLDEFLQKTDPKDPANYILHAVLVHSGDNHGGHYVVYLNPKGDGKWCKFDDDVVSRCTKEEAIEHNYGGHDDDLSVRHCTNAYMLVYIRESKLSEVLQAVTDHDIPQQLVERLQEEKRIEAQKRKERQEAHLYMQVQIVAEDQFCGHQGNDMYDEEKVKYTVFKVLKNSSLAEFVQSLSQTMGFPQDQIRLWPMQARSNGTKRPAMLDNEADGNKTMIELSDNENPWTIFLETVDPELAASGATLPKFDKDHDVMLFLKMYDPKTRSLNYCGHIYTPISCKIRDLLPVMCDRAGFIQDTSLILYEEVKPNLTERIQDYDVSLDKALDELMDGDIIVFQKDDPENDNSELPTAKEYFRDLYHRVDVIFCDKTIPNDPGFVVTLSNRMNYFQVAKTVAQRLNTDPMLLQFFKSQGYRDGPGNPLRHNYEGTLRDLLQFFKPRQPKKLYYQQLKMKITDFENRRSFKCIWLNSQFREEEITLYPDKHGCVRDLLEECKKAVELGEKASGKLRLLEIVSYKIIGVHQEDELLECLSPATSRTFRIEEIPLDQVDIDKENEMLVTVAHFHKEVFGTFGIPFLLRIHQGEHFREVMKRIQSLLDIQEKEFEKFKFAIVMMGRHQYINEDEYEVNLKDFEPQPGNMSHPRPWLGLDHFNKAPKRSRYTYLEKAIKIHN

As to `N#Cc1nccc(C(=O)NCc2nn(C(=O)Cc3ccccc3)c3ccccc23)n1`, in the data set with Escherichia coli, the result was inactive. In addition, the Activity result in data set [1] is “Toxic”; in the data set on HEp-2, “Non-toxic”. Moreover, the inhibition is under 25% in data set [2]; under 25% in data set [6]; 100% in data set [7]; under 25% in [8]; “Active; Partial Inhibition Observed” in [10]; “Active; Complete Inhibition Not Observed” in data set [11]. In addition, the inhibition result in data set [3] and in data set [9] was “Active” in each case. Besides, the pIC50 in [4] was 4.52; in [12], 6.01. The viability at 20 h, 128 ug/mL in data set [5] was 67%.

The values above are taken from ChEMBL document CHEMBL6103628, “Structural Optimization of Covalent Inhibitors for Deubiquitinase ChlaDUB1 of Chlamydia trachomatis as Antibiotic Agents” (J Med Chem, 2025).
